Experimental data reported in PubChem BioAssay (NCI).
Values joined by “and” are separate entries in the source; they are usually repeats but may differ in a detail not shown here. Equal entries are not always repeated.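 These data come from cells grown in 96-well plates and exposed to compound for 48 hours at five concentrations. GI50 is the concentration that inhibits growth by half. TGI denotes the concentration required for complete inhibition of growth.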

How the values were obtained:
Test in all cases: inhibition of tumour cell growth, NCI panel, 48 h
UACC-62 melanoma = system: UACC-62 melanoma
HCC-2998 colon = system: HCC-2998 colon
COLO 205 colon = system: COLO 205 colon
OVCAR-3 ovarian = system: OVCAR-3 ovarian
MALME-3M melanoma = system: MALME-3M melanoma
KM12 colon = system: KM12 colon
T-47D breast = system: T-47D breast
HL-60(TB) leukemia = system: HL-60(TB) leukemia
OVCAR-4 ovarian = system: OVCAR-4 ovarian
TK-10 renal = system: TK-10 renal
OVCAR-8 ovarian = system: OVCAR-8 ovarian

CCOC(=O)c1cc2c([N+](=O)[O-])c(NC(C)=O)ccc2s1
TGI (UACC-62 melanoma): > 100 µM
TGI (HCC-2998 colon): > 100 µM
TGI (COLO 205 colon): > 100 µM
TGI (OVCAR-3 ovarian): > 100 µM
TGI (MALME-3M melanoma): > 100 µM
TGI (KM12 colon): > 100 µM
TGI (T-47D breast): 61.2 µM
TGI (HL-60(TB) leukemia): > 100 µM
TGI (OVCAR-4 ovarian): > 100 µM
TGI (TK-10 renal): > 100 µM
TGI (OVCAR-8 ovarian): > 100 µM

Cc1cn(C2CC(N)C(CN)O2)c(=O)[nH]c1=O (stereo not drawn)
TGI (UACC-62 melanoma): > 100 µM
TGI (HCC-2998 colon): > 100 µM
TGI (COLO 205 colon): > 100 µM
TGI (OVCAR-3 ovarian): > 100 µM
TGI (MALME-3M melanoma): > 100 µM
TGI (KM12 colon): > 100 µM
TGI (T-47D breast): > 100 µM
TGI (HL-60(TB) leukemia): > 100 µM
TGI (OVCAR-4 ovarian): > 100 µM
TGI (TK-10 renal): > 100 µM
TGI (OVCAR-8 ovarian): > 100 µM

O=c1[nH]cnc2c(C3OC(CO)C(O)C3O)c[nH]c12 (stereo not drawn)
TGI (UACC-62 melanoma): > 100 µM
TGI (HCC-2998 colon): > 100 µM
TGI (COLO 205 colon): > 100 µM
TGI (OVCAR-3 ovarian): > 100 µM
TGI (MALME-3M melanoma): > 100 µM
TGI (KM12 colon): > 100 µM
TGI (T-47D breast): > 100 µM
TGI (HL-60(TB) leukemia): > 100 µM
TGI (OVCAR-4 ovarian): > 100 µM
TGI (TK-10 renal): > 100 µM
TGI (OVCAR-8 ovarian): > 100 µM

COc1ccc(N2C(=O)C3c4[nH]c5ccc([N+](=O)[O-])cc5c4C4CCC(C(C)(C)C)CC4C3C2=O)cc1 (stereo not drawn)
TGI (UACC-62 melanoma): > 100 µM
TGI (HCC-2998 colon): > 100 µM
TGI (COLO 205 colon): 69.6 µM
TGI (OVCAR-3 ovarian): 49.5 µM
TGI (MALME-3M melanoma): > 100 µM
TGI (KM12 colon): > 100 µM
TGI (T-47D breast): > 100 µM
TGI (HL-60(TB) leukemia): 33.5 µM
TGI (OVCAR-4 ovarian): > 100 µM
TGI (TK-10 renal): > 100 µM
TGI (OVCAR-8 ovarian): > 100 µM

CCCCCCCCCC[C@@H](O)[C@H]1CC[C@H]([C@H]2CC[C@H]([C@H](O)CCCCCCCCCC[C@@H]3CC(CC(C)=O)C(=O)O3)O2)O1 (stereo partly drawn)
GI50 (UACC-62 melanoma): 14.9 µM
TGI (UACC-62 melanoma): > 50 µM
TGI (HCC-2998 colon): > 50 µM
GI50 (COLO 205 colon): 6.71 µM
TGI (COLO 205 colon): > 29.5 µM
GI50 (OVCAR-3 ovarian): 4.48 µM
TGI (OVCAR-3 ovarian): > 50 µM
TGI (MALME-3M melanoma): > 50 µM
GI50 (KM12 colon): 3.34 µM
TGI (KM12 colon): > 50 µM
TGI (T-47D breast): > 50 µM
GI50 (HL-60(TB) leukemia): 2.25 µM
TGI (HL-60(TB) leukemia): 9.6 µM and > 50 µM
TGI (OVCAR-4 ovarian): > 50 µM
GI50 (TK-10 renal): 2.33 µM
TGI (TK-10 renal): > 50 µM
TGI (OVCAR-8 ovarian): > 50 µM

CC(=O)OCC1OC(N2C(=O)/C(=C\c3ccc(Cl)cc3)C(N)=Nc3ccccc32)C(OC(C)=O)C(OC(C)=O)C1OC(C)=O (stereo not drawn)
TGI (UACC-62 melanoma): > 100 µM
TGI (HCC-2998 colon): 36.5 µM
TGI (COLO 205 colon): 29.8 µM
TGI (OVCAR-3 ovarian): 32.6 µM
TGI (MALME-3M melanoma): 68.4 µM
TGI (KM12 colon): 39.5 µM
TGI (T-47D breast): 39.1 µM
TGI (HL-60(TB) leukemia): > 100 µM
TGI (OVCAR-4 ovarian): 66.4 µM
TGI (TK-10 renal): 88.2 µM
TGI (OVCAR-8 ovarian): 26.7 µM

O=c1[nH]c2nc3ccccc3c(=O)n2/c1=C/c1ccc(O)cc1
TGI (UACC-62 melanoma): > 100 µM
TGI (HCC-2998 colon): 69.9 µM
TGI (COLO 205 colon): > 100 µM
TGI (OVCAR-3 ovarian): > 100 µM
TGI (MALME-3M melanoma): > 100 µM
TGI (KM12 colon): > 100 µM
TGI (T-47D breast): > 100 µM
TGI (HL-60(TB) leukemia): > 100 µM
TGI (OVCAR-4 ovarian): > 100 µM
TGI (TK-10 renal): > 100 µM
TGI (OVCAR-8 ovarian): 54.8 µM

C=CC(=O)c1ccc2c(c1)OCCOCCOCCOCCOCCO2
TGI (UACC-62 melanoma): 92 µM
TGI (HCC-2998 colon): > 100 µM
TGI (COLO 205 colon): 33 µM
TGI (OVCAR-3 ovarian): 35.4 µM
TGI (MALME-3M melanoma): 33.6 µM
TGI (KM12 colon): > 100 µM
TGI (T-47D breast): 59.4 µM
TGI (HL-60(TB) leukemia): > 100 µM
TGI (OVCAR-4 ovarian): 36.3 µM
TGI (TK-10 renal): 31.1 µM
TGI (OVCAR-8 ovarian): 41.9 µM

CC(=O)NC1C(OCc2ccccc2)OC(CO)C(O)C1OCC(=O)N[C@@H](C)C(=O)N[C@H](CCC(=O)NCCNCCNc1c2ccccc2nc2cccc([N+](=O)[O-])c12)C(N)=O (stereo partly drawn)
TGI (UACC-62 melanoma): 35.2 µM
TGI (HCC-2998 colon): 22.5 µM
TGI (COLO 205 colon): > 100 µM
TGI (OVCAR-3 ovarian): > 100 µM
TGI (MALME-3M melanoma): 55.5 µM
TGI (KM12 colon): 78.5 µM
TGI (T-47D breast): > 100 µM
TGI (HL-60(TB) leukemia): > 100 µM
TGI (OVCAR-4 ovarian): 40.2 µM
TGI (TK-10 renal): > 100 µM
TGI (OVCAR-8 ovarian): > 100 µM

O=c1c2ccccc2[nH]c(=S)n1-c1ccc(N=Nc2cccc3c(O)cccc23)cc1
TGI (UACC-62 melanoma): 68 µM
TGI (HCC-2998 colon): > 100 µM
TGI (COLO 205 colon): > 100 µM
TGI (OVCAR-3 ovarian): > 100 µM
TGI (MALME-3M melanoma): > 100 µM
TGI (KM12 colon): > 100 µM
TGI (T-47D breast): > 100 µM
TGI (HL-60(TB) leukemia): > 100 µM
TGI (OVCAR-4 ovarian): > 100 µM
TGI (TK-10 renal): > 100 µM
TGI (OVCAR-8 ovarian): > 100 µM

CCN(CC)CCn1c2cc3c(cc2c(=O)c2cccnc21)OCCO3
TGI (UACC-62 melanoma): > 10 µM
TGI (HCC-2998 colon): > 10 µM
TGI (COLO 205 colon): > 10 µM
TGI (OVCAR-3 ovarian): > 10 µM
TGI (MALME-3M melanoma): > 10 µM
TGI (KM12 colon): > 10 µM
TGI (T-47D breast): > 10 µM
TGI (HL-60(TB) leukemia): > 10 µM
TGI (OVCAR-4 ovarian): > 10 µM
TGI (TK-10 renal): > 10 µM
TGI (OVCAR-8 ovarian): > 10 µM

COc1ccc(-c2c(C#N)c(S)n(C3OC(COC(C)=O)C(OC(C)=O)C(OC(C)=O)C3OC(C)=O)c(=O)c2C#N)cc1 (stereo not drawn)
TGI (UACC-62 melanoma): 97.9 µM and 61.9 µM
TGI (HCC-2998 colon): 98.9 µM and 64.6 µM
GI50 (COLO 205 colon): > 100 µM and 40.7 µM
TGI (COLO 205 colon): > 100 µM
GI50 (OVCAR-3 ovarian): > 100 µM and 23.8 µM
TGI (OVCAR-3 ovarian): > 100 µM and 61.6 µM
GI50 (MALME-3M melanoma): 77.1 µM and 37.7 µM
TGI (MALME-3M melanoma): > 100 µM
TGI (KM12 colon): > 100 µM
TGI (T-47D breast): > 100 µM and 52.5 µM
TGI (HL-60(TB) leukemia): > 100 µM and 45.6 µM
TGI (OVCAR-4 ovarian): > 100 µM and 77.6 µM
TGI (TK-10 renal): > 100 µM and 92.2 µM
TGI (OVCAR-8 ovarian): > 100 µM

Cc1ccc2c(c1C)CC1(Cc3c(ccc4c3CCC4)C1=O)C2=O (stereo not drawn)
TGI (UACC-62 melanoma): > 100 µM
TGI (HCC-2998 colon): > 100 µM
TGI (COLO 205 colon): > 100 µM
TGI (OVCAR-3 ovarian): > 100 µM
TGI (MALME-3M melanoma): > 100 µM
TGI (KM12 colon): > 100 µM
TGI (T-47D breast): > 100 µM
TGI (HL-60(TB) leukemia): > 100 µM
TGI (OVCAR-4 ovarian): > 100 µM
TGI (TK-10 renal): > 100 µM
TGI (OVCAR-8 ovarian): > 100 µM

Cc1ccc(N=Nc2c3c(c(O)c4ccccc24)CCC(C)(C)O3)cc1
TGI (UACC-62 melanoma): 28.1 µM
TGI (HCC-2998 colon): 34.3 µM
TGI (COLO 205 colon): 62.8 µM
TGI (OVCAR-3 ovarian): 62.4 µM
TGI (MALME-3M melanoma): 21.6 µM
TGI (KM12 colon): 55.7 µM
TGI (T-47D breast): 60.3 µM
TGI (HL-60(TB) leukemia): 49.7 µM
TGI (OVCAR-4 ovarian): 44.5 µM
TGI (TK-10 renal): 88.5 µM
TGI (OVCAR-8 ovarian): > 100 µM

c1cc2nnc1SCCSCCSc1ccc(nn1)SCCSCCS2
TGI (UACC-62 melanoma): > 100 µM
TGI (HCC-2998 colon): > 100 µM
TGI (COLO 205 colon): > 100 µM
TGI (OVCAR-3 ovarian): > 100 µM
TGI (MALME-3M melanoma): > 100 µM
TGI (KM12 colon): > 100 µM
TGI (T-47D breast): > 100 µM
TGI (HL-60(TB) leukemia): > 100 µM
TGI (OVCAR-4 ovarian): > 100 µM
TGI (TK-10 renal): > 100 µM
TGI (OVCAR-8 ovarian): > 100 µM

COc1ccc(Nc2c(C#N)c3n(c4ccccc24)c2ccccc2[n+]3C)cc1OC
TGI (UACC-62 melanoma): 12.5 µM
TGI (HCC-2998 colon): 13.7 µM
TGI (COLO 205 colon): 12 µM
TGI (OVCAR-3 ovarian): 11 µM
TGI (MALME-3M melanoma): 15.8 µM
TGI (KM12 colon): 41.7 µM
TGI (T-47D breast): > 36.9 µM
TGI (HL-60(TB) leukemia): > 100 µM
TGI (OVCAR-4 ovarian): 32.5 µM
TGI (TK-10 renal): 12.4 µM
TGI (OVCAR-8 ovarian): 18.5 µM

COC(=O)C(=O)CC(=O)CCn1ncc(Cl)c(Cl)c1=O
TGI (UACC-62 melanoma): 25.8 µM
TGI (HCC-2998 colon): 13.1 µM
TGI (COLO 205 colon): 31.8 µM
TGI (OVCAR-3 ovarian): 17.8 µM
TGI (MALME-3M melanoma): 21.3 µM
TGI (KM12 colon): > 74.5 µM
GI50 (T-47D breast): 21.2 µM
TGI (T-47D breast): 40.2 µM
TGI (HL-60(TB) leukemia): 9.68 µM
TGI (OVCAR-4 ovarian): 6.61 µM
TGI (TK-10 renal): > 85.5 µM
TGI (OVCAR-8 ovarian): 27.9 µM

CCOC(=O)c1sc2nc(SC)nc3c2c1N=CN3c1ccc(Br)cc1
TGI (UACC-62 melanoma): > 100 µM
TGI (HCC-2998 colon): > 100 µM
TGI (COLO 205 colon): > 100 µM
TGI (OVCAR-3 ovarian): > 100 µM
TGI (MALME-3M melanoma): > 100 µM
TGI (KM12 colon): > 100 µM
TGI (T-47D breast): > 100 µM
TGI (HL-60(TB) leukemia): > 100 µM
TGI (OVCAR-4 ovarian): > 100 µM
TGI (TK-10 renal): > 100 µM
TGI (OVCAR-8 ovarian): > 100 µM
